Read-outs that look alike come from different tables or passages of the source.
Experiments:
Assay type in all cases: cell-based
[1] = test system: H82 cells; assay: Cell proliferation experiment, H82 cells; conditions: Homo sapiens, NCI-H82, cultured for 72 hours, Cell Titer-Glo, read-out: Cell antiproliferation data H82
Experimental: (§1) Reagents: RPMI-1640 medium, McCoy's 5A medium, IMDM medium, MEM medium, L-15 medium, fetal bovine serum, Penicillin-Streptomycin double antibody, trypsin, etc., 2-mercaptoethanol, NEAA, pyruvate, etc.
(§2) The test cells were cultured in conventional ways, and the cells should be passed for at least 2 generations before plating.
(§3) 25 μL of 1500 H82 and H69 cells were inoculated in a 384-well plate with black wall and transparent bottom, 25 μL of different concentrations of compounds were added, and the cells were cultured for 72 hours under condition of 37° C. and 5% CO2. The 384-well plate was equilibrated at room temperature, 25 μL of Cell Titer-Glo® reagent was added to each well, and the cells were lysed by shaking on a horizontal shaking shaker for 2 minutes, incubated at room temperature for 10 minutes to stabilize the luminescent signal, and then the chemiluminescent signal was detected using Envision.
(§4) All cells were subjected to IC50 test for corresponding samples. […]
(§5) IC50 was calculated according to the following formula:
(§6) [formula] • wherein, Min, Max and Slope represent the minimum, maximum and slope respectively.

[2] = test system: HT-29 cells; assay: Cell proliferation experiment, HT-29 cells; conditions: Cell Titer-Glo, read-out: Cell antiproliferation data HT-29
Experimental: as §1, §2
(§7) 25 μL of 1000 HT-29, N87, SKOV3, Colo-205 and MDA-MB-231 cells were inoculated in a 384-well plate with black wall and transparent bottom, 25 μL of different concentrations of compounds were added, and the cells were cultured overnight under condition of 37° C. and 5% CO2.
as §3
(§8) All cells were subjected to IC50 test for corresponding samples.
(§9) The fluorescence intensity of each well was detected using the Alarm blue method, and EC50 was calculated.
as §5, §6

[3] = test system: MDA-MB-231 cells; assay: Cell proliferation experiment, MDA-MB-231 cells; conditions: Cell Titer-Glo, read-out: Cell antiproliferation data MDA-MB-231
Experimental: as §1, §2, §7, §3, §8, §9, §5, §6

[4] = test system: H69 cells; assay: Cell proliferation experiment, H69 cells; conditions: cultured for 72 hours, Cell Titer-Glo, read-out: Cell antiproliferation data H69
Experimental: as §1, §2, §3, §4, §5, §6

[5] = test system: SKOV3 cells; assay: Cell proliferation experiment, SKOV3 cells; conditions: Cell Titer-Glo, read-out: Cell antiproliferation data SKOV3
Experimental: as §1, §2, §7, §3, §8, §9, §5, §6

[6] = test system: Colo-205 cells; assay: Cell proliferation experiment, Colo-205 cells; conditions: Cell Titer-Glo, read-out: Cell antiproliferation data Colo-205
Experimental: as §1, §2, §7, §3, §8, §9, §5, §6

[7] = test system: N87 cells; assay: Cell proliferation experiment, N87 cells; conditions: Cell Titer-Glo, read-out: Cell antiproliferation data N87
Experimental: as §1, §2, §7, §3, §8, §9, §5, §6

[8] = Homo sapiens, SK-OV-3, SKOV3 cells
[9] = Homo sapiens, COLO 205, Colo-205 cells

| Structure (SMILES) | IC50 [1] [nM] | IC50 ([2]; Homo sapiens) [nM] | IC50 ([3]; Homo sapiens) [nM] | IC50 ([4]; Homo sapiens, NCI-H69, 72 h) [nM] | IC50 [5, 8] [nM] | IC50 [6, 9] [nM] | IC50 [7] [nM] | IC50 [2] [nM] | IC50 [3] [nM] | IC50 [4] [nM] | IC50 ([5]; SKOV3 cells) [nM] | IC50 ([6]; Colo-205 cells) [nM] |
| --- | --- | --- | --- | --- | --- | --- | --- | --- | --- | --- | --- | --- |
| CC(C)n1cnc2c(NCc3ccc(-c4ccccc4)cc3)nc(N3CCC(N)CC3)nc21 [UB-017, N-([1,1′-biphenyl]-4-ylmethyl)-2-(4-amino-piperidin-1-yl)-9-isopropyl-9H-purin-6-amine] | 100 to 300 | ≤ 100 | ≤ 100 | 100 to 300 | 100 to 300 | 100 to 300 | ≤ 100 | – | – | – | – | – |
| CC(C)n1cnc2c(NCc3ccc(-c4ccccc4)cc3)nc(N3CCC[C@@H](N)C3)nc21 [UB-013, (R)-N-([1,1′-biphenyl]-4-ylmethyl)-2-(3-aminopiperidin-1-yl)-9-isopropyl-9H-purin-6-amine] | ≤ 100 | ≤ 100 | ≤ 100 | 100 to 300 | 100 to 300 | ≤ 100 | ≤ 100 | – | – | – | – | – |
| CCn1cnc2c(NCc3ccc(-c4cccc(CO)c4)cc3)nc(N3CCNCC3)nc21 [UB-005] | ≤ 100 | – | – | – | – | – | ≤ 100 | ≤ 100 | ≤ 100 | ≤ 100 | ≤ 100 | ≤ 100 |
| CC(C)n1cnc2c(NCc3ccc(-c4ccccc4)cc3)nc(N3CCCCC3)nc21 [UB-008, N-([1,1′-biphenyl]-4-ylmethyl)-9-isopropyl-2-(Piperidin-1-yl)-9H-purin-6-amine] | > 300 | > 300 | > 300 | > 300 | > 300 | > 300 | > 300 | – | – | – | – | – |

From patent US20260152501A1, “CYCLIN MODULATOR” (EUBULUS BIOTHERAPEUTICS (HONG KONG) LIMITED, priority 2022, published 2026)
